Measurements from ChEMBL document CHEMBL1149172, “BREED: Generating novel inhibitors through hybridization of known ligands. Application to CDK2, p38, and HIV protease” (J Med Chem, 2004).

Biological target: Human immunodeficiency virus type 1 protease (Human immunodeficiency virus 1, UniProt Q72874)
Assay: Inhibitory activity against HIV-I protease was determined

In the case of CC(C)CN(C[C@@H](O)[C@H](Cc1ccccc1)NC(=O)O[C@H]1CCOC1)S(=O)(=O)NC(C)(C)C, the Ki is reported as 42 nM.
With CC(C)CN(C[C@@H](O)[C@H](Cc1ccccc1)NC(=O)[C@H](CC(N)=O)NC(=O)c1ccc2ccccc2n1)S(=O)(=O)N1ONc2ccccc21 the Ki was 0.1 nM.
